# Results published in US20240368214A1, “POSITIVE NMDA-MODULATING COMPOUNDS AND METHODS OF USE THEREOF” (SAGE THERAPEUTICS, INC., priority 2021, published 2024).
# Target: T1, recombinant human GluN1/GluN2A receptor (Homo sapiens, UniProt Q05586+Q12879)
# T1 construct: expressed in transfected cells; host or cells: HEK293, tetracycline-inducible expression
# Test: Whole-cell patch clamp of mammalian cells (Syncropatch 384i), NMDA modulation
# Type: cell-based
# Conditions: Table E-2; HEK293 cells, human GluN1/GluN2A; glutamate 1 μM / glycine 100 μM; -80 mV; peak amplitude increase; read-out: EC50
# How it was run: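 Modulation read as fold rise in peak current, (Icomp/Icontrol)−1, from 8 concentrations with ≥2 wells each, four-parameter fit. Compound pre-incubated 120 s then co-applied with 1 μM glutamate plus 100 μM glycine; tetracycline-inducible HEK293 GluN1/GluN2A cells clamped at −80 mV.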
# T1 sequence (Q12879 23-1464, other chains not shown): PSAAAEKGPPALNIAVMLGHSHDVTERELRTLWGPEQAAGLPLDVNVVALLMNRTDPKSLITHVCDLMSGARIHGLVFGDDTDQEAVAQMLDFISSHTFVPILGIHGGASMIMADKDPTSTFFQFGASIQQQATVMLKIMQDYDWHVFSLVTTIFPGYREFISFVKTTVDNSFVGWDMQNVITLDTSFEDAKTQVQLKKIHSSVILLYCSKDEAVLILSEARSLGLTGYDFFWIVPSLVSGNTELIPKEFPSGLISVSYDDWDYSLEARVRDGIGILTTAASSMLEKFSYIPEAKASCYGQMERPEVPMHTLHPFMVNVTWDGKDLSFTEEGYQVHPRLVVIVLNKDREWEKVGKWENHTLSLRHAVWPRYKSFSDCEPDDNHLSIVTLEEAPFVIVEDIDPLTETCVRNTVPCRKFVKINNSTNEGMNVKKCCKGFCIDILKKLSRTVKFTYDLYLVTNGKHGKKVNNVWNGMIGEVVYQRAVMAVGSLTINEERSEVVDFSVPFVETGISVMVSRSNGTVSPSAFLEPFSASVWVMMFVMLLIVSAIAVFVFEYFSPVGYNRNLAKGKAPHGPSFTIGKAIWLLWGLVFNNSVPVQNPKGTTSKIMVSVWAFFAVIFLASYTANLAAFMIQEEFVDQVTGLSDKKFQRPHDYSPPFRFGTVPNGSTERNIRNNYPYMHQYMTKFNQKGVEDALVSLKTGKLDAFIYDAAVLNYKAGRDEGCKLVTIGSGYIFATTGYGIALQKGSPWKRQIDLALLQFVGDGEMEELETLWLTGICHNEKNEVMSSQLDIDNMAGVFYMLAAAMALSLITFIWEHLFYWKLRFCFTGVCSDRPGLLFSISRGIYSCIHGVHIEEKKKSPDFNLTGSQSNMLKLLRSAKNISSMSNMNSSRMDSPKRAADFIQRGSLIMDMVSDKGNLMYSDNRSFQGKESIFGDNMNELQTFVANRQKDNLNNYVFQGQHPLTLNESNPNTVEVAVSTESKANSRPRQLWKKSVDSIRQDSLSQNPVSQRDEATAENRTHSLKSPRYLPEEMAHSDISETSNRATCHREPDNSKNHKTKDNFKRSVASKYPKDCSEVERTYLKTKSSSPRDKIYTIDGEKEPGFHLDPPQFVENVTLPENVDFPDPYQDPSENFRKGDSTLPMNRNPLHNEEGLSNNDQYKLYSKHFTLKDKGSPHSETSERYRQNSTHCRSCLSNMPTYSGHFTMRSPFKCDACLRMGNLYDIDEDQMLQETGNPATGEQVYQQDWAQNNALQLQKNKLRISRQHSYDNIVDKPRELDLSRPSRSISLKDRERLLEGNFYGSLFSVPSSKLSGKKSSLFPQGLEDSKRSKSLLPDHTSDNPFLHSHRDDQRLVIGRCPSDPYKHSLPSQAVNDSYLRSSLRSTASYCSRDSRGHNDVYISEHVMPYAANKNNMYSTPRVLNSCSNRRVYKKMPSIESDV
row,Compound,EC50 [nM]
1,"C[C@H](CC[C@](C)(O)C(F)(F)F)[C@H]1CC[C@H]2[C@@H]3CC[C@H]4C[C@@](C)(O)CC[C@]4(C)C3=CC[C@]12C [Compound E-13, (3S,5S,8S,10S,13R,14S,17R)-3,10,13-trimethyl-17-((2R,5S)-6,6,6-trifluoro-5-hydroxy-5-methylhexan-2-yl)-2,3,4,5,6,7,8,10,12,13,14,15,16,17-tetradecahydro-1H-cyclopenta[a]phenanthren-3-ol]",1 to 100
2,"C[C@H](CC[C@@](C)(O)C(F)(F)F)[C@H]1CC[C@H]2[C@@H]3CC[C@H]4C[C@@](C)(O)CC[C@]4(C)C3=CC[C@]12C [Compound E-14, (3S,5S,8S,10S,13R,14S,17R)-3,10,13-trimethyl-17-((2R,5R)-6,6,6-trifluoro-5-hydroxy-5-methylhexan-2-yl)-2,3,4,5,6,7,8,10,12,13,14,15,16,17-tetradecahydro-1H-cyclopenta[a]phenanthren-3-ol]",100 to 500
3,"C[C@H](CCC1(O)CC1)[C@H]1CC[C@H]2[C@@H]3CC[C@H]4C[C@@](C)(O)CC[C@]4(C)C3=CC[C@]12C [Compound E-15, (3S,5S,8S,10S,13R,14S,17R)-17-((R)-4-(1-hydroxycyclopropyl)butan-2-yl)-3,10,13-trimethyl-2,3,4,5,6,7,8,10,12,13,14,15,16,17-tetradecahydro-1H-cyclopenta[a]phenanthren-3-ol]",1 to 100
4,"CCC(O)(CC)CC[C@@H](C)[C@H]1CC[C@H]2[C@@H]3CC[C@H]4C[C@@](C)(O)CC[C@]4(C)C3=CC[C@]12C [Compound E-16, (3S,5S,8S,10S,13R,14S,17R)-17-((R)-5-ethyl-5-hydroxyheptan-2-yl)-3,10,13-trimethyl-2,3,4,5,6,7,8,10,12,13,14,15,16,17-tetradecahydro-1H-cyclopenta[a]phenanthren-3-ol]",500 to 1000

# Same assay, conditions: Table F-2; HEK293 cells, human GluN1/GluN2A; glutamate 1 μM / glycine 100 μM; -80 mV; peak amplitude increase; read-out: EC50
row,Compound,EC50 [nM]
1,"CC[C@]12CC[C@H]3[C@@H](CC=C4C[C@@](C)(O)CC[C@@]43C)[C@@H]1CC[C@@H]2[C@H](C)CC[C@H](O)C(C)C [Compound F-3, (3S,8S,9S,10R,13R,14S,17R)-13-ethyl-17-((2R,5S)-5-hydroxy-6-methylheptan-2-yl)-3,10-dimethyl-2,3,4,7,8,9,10,11,12,13,14,15,16,17-tetradecahydro-1H-cyclopenta[a]phenanthren-3-ol]",100 to 500
2,"CC[C@]12CC[C@H]3[C@@H](CC=C4C[C@@](C)(O)CC[C@@]43C)[C@@H]1CC[C@@H]2[C@H](C)CC[C@@H](O)C(C)C [Compound F-4, (3S,8S,9S,10R,13R,14S,17R)-13-ethyl-17-((2R,5R)-5-hydroxy-6-methylheptan-2-yl)-3,10-dimethyl-2,3,4,7,8,9,10,11,12,13,14,15,16,17-tetradecahydro-1H-cyclopenta[a]phenanthren-3-ol]",100 to 500
3,"CC[C@]1(O)CC[C@@]2(C)C(=CC[C@H]3[C@@H]4CC[C@H]([C@H](C)CC[C@H](O)C(C)C)[C@@]4(CC)CC[C@@H]32)C1 [Compound F-5, (3S,8S,9S,10R,13R,14S,17R)-3,13-diethyl-17-((2R,5S)-5-hydroxy-6-methylheptan-2-yl)-10-methyl-2,3,4,7,8,9,10,11,12,13,14,15,16,17-tetradecahydro-1H-cyclopenta[a]phenanthren-3-ol]",100 to 500
4,"CC[C@]1(O)CC[C@@]2(C)[C@@H](CC[C@@H]3[C@@H]2CC[C@]2(CC)[C@@H]([C@H](C)CC[C@H](O)C(C)C)CC[C@@H]32)C1 [Compound F-6, (3S,5S,8R,9S,10S,13R,14S,17R)-3,13-diethyl-17-((2R,5S)-5-hydroxy-6-methylheptan-2-yl)-10-methylhexadecahydro-1H-cyclopenta[a]phenanthren-3-ol]",100 to 500
5,"CC[C@]1(O)CC[C@@]2(C)[C@@H](CC[C@@H]3[C@@H]2CC[C@]2(CC)[C@@H]([C@H](C)CC[C@@H](O)C(C)C)CC[C@@H]32)C1 [Compound F-7, (3S,5S,8R,9S,10S,13R,14S,17R)-3,13-diethyl-17-((2R,5R)-5-hydroxy-6-methylheptan-2-yl)-10-methylhexadecahydro-1H-cyclopenta[a]phenanthren-3-ol]",100 to 500
6,"CC[C@]1(O)CC[C@@]2(C)[C@@H](CC[C@H]3[C@@H]4CC[C@H]([C@H](C)CC[C@H](O)C(C)C)[C@H]4CC[C@@H]32)C1 [Compound F-8, (3S,5S,8S,9S,10S,13R,14R,17R)-3-ethyl-17-((2R,5S)-5-hydroxy-6-methylheptan-2-yl)-10-methylhexadecahydro-1H-cyclopenta[a]phenanthren-3-ol]",100 to 500
7,"CC[C@]1(O)CC[C@@]2(C)[C@@H](CC[C@H]3[C@@H]4CC[C@H]([C@H](C)CC[C@@H](O)C(C)C)[C@H]4CC[C@@H]32)C1 [Compound F-9, (3S,5S,8S,9S,10S,13R,14R,17R)-3-ethyl-17-((2R,5R)-5-hydroxy-6-methylheptan-2-yl)-10-methylhexadecahydro-1H-cyclopenta[a]phenanthren-3-ol]",100 to 500
8,"CC[C@]1(O)CC[C@@]2(C)C(=CC[C@H]3[C@@H]4CC[C@H]([C@H](C)CC[C@@H](O)C(C)C)[C@H]4CC[C@@H]32)C1 [Compound F-10, (3S,8S,9S,10R,13R,14R,17R)-3-ethyl-17-((2R,5R)-5-hydroxy-6-methylheptan-2-yl)-10-methyl-2,3,4,7,8,9,10,11,12,13,14,15,16,17-tetradecahydro-1H-cyclopenta[a]phenanthren-3-ol]",100 to 500
9,"CC[C@]1(O)CC[C@@]2(C)C(=CC[C@H]3[C@@H]4CC[C@H]([C@H](C)CC[C@@H](O)C(C)C)[C@@]4(CC)CC[C@@H]32)C1 [Compound F-14, (3S,8S,9S,10R,13R,14S,17R)-3,13-diethyl-17-((2R,5R)-5-hydroxy-6-methylheptan-2-yl)-10-methyl-2,3,4,7,8,9,10,11,12,13,14,15,16,17-tetradecahydro-1H-cyclopenta[a]phenanthren-3-ol]",100 to 500

# Same assay, conditions: Table G-2; HEK293 cells, human GluN1/GluN2A; glutamate 1 μM / glycine 100 μM; -80 mV; peak amplitude increase
row,Compound,Emax [%]
1,"CC[C@]1(O)CC[C@H]2[C@@H](CC[C@@H]3[C@@H]2CC[C@]2(C)[C@@H]([C@H](C)CC[C@](C)(O)C(F)(F)F)CC[C@@H]32)C1 [Compound G-1, (3S,5S,8R,9R,10S,13R,14S,17R)-3-ethyl-13-methyl-17-((2R,5S)-6,6,6-trifluoro-5-hydroxy-5-methylhexan-2-yl)hexadecahydro-1H-cyclopenta[a]phenanthren-3-ol]",> 200
2,"CC[C@]1(O)CC[C@H]2[C@@H](CC[C@@H]3[C@@H]2CC[C@]2(C)[C@@H]([C@H](C)CC[C@@](C)(O)C(F)(F)F)CC[C@@H]32)C1 [Compound G-2, (3S,5S,8R,9R,10S,13R,14S,17R)-3-ethyl-13-methyl-17-((2R,5R)-6,6,6-trifluoro-5-hydroxy-5-methylhexan-2-yl)hexadecahydro-1H-cyclopenta[a]phenanthren-3-ol]",100 to 200
3,"CC[C@]1(O)CC[C@@]2(CC)[C@@H](CC[C@H]3[C@@H]4CC[C@H]([C@H](C)CCCC(C)(C)O)[C@@]4(C)CC[C@@H]32)C1 [Compound G-3, (3S,5S,8S,9S,10S,13R,14S,17R)-3,10-diethyl-17-((R)-6-hydroxy-6-methylheptan-2-yl)-13-methylhexadecahydro-1H-cyclopenta[a]phenanthren-3-ol]",100 to 200

# Same assay, conditions: Table G-2; HEK293 cells, human GluN1/GluN2A; glutamate 1 μM / glycine 100 μM; -80 mV; peak amplitude increase; read-out: EC50
row,Compound,EC50 [nM]
1,"CC[C@]1(O)CC[C@H]2[C@@H](CC[C@@H]3[C@@H]2CC[C@]2(C)[C@@H]([C@H](C)CC[C@](C)(O)C(F)(F)F)CC[C@@H]32)C1 [Compound G-1, (3S,5S,8R,9R,10S,13R,14S,17R)-3-ethyl-13-methyl-17-((2R,5S)-6,6,6-trifluoro-5-hydroxy-5-methylhexan-2-yl)hexadecahydro-1H-cyclopenta[a]phenanthren-3-ol]",1 to 100
2,"CC[C@]1(O)CC[C@H]2[C@@H](CC[C@@H]3[C@@H]2CC[C@]2(C)[C@@H]([C@H](C)CC[C@@](C)(O)C(F)(F)F)CC[C@@H]32)C1 [Compound G-2, (3S,5S,8R,9R,10S,13R,14S,17R)-3-ethyl-13-methyl-17-((2R,5R)-6,6,6-trifluoro-5-hydroxy-5-methylhexan-2-yl)hexadecahydro-1H-cyclopenta[a]phenanthren-3-ol]",500 to 1000
3,"CC[C@]1(O)CC[C@@]2(CC)[C@@H](CC[C@H]3[C@@H]4CC[C@H]([C@H](C)CCCC(C)(C)O)[C@@]4(C)CC[C@@H]32)C1 [Compound G-3, (3S,5S,8S,9S,10S,13R,14S,17R)-3,10-diethyl-17-((R)-6-hydroxy-6-methylheptan-2-yl)-13-methylhexadecahydro-1H-cyclopenta[a]phenanthren-3-ol]",1 to 100
